Measurements as given in patent US20220023250A1, “ISOPROPYLCARBONATE BENZOYL PEROXIDE COMPOSITIONS AND METHODS OF USE” (Galderma Holding SA, priority 2019, published 2022).

How the values were obtained:
[1] = Maximum solubility in non-volatile part of vehicle gel and in reconstituted sebum; format: physicochemical; conditions: for maximum solubility, TA reconstituted liquid sebum (22 H) / maximum solubility, TA reconstituted liquid sebum (extemporaneous): liquid fraction of the reconstituted sebum; for maximum solubility, TA reconstituted liquid sebum (22 H) / maximum solubility, TA non-volatile (22 H) / maximum solubility, Liquid sebum reconstituted at 32° C. (22 H): 22 H agitation; for maximum solubility, TA non-volatile (22 H): non-volatile part of the Composition A vehicle gel
From the text: In the case of active principles in dispersed form, these can dissolve after application, either in the sebum or in the non-volatile part of the formulation. […] (22 H agitation)

[2] = Maximum solubility of Isopropylcarbonate Benzoyl Peroxide in oils; format: physicochemical
Description: First, the maximum solubilities of Isopropylcarbonate Benzoyl Peroxide in various oils was assessed in the following table.

[3] = Compatibility of additives (keratolytic agents, opacifying agents) with 1% CD08467 gel based composition 0347.1000; format: physicochemical; conditions: for Notes (reason of incompatibility): Table 6, keratolytic additive in gel 0347.1000; for compatibility of keratolytic agents: summary of Table 6
Description: For this study, the following gel based composition was tested:
The following keratolytic agents were tested with the gel based composition indicated above:
The goal of using an opacifier is to mainly “mask” the evolution of the orange-brown color that appears over time either or the orange color present from T0. […] The chemical and physical stabilities were evaluated over 3 months at RT and 40° C.
The following opacifying agents were tested with the gel based composition indicated above: […]

[4] = Compatibility with oils: chemical and physical stability of 2.5% formulations, 3 months RT and 40° C.; format: physicochemical
Description: To assess the possibility of a cream formulation that restores the cutaneous barrier, the compatibility of Isopropylcarbonate Benzoyl Peroxide with oils was assessed.
Further the chemical and physical stabilities of the formulations containing 2.5% Isopropylcarbonate Benzoyl Peroxide with various oils were assessed after storage at 3 months RT and 40° C. The value of 2.5% was chosen in order to allow for comparisons to an equivalent formulation containing 2.5% benzoyl peroxide instead of 2.5% Isopropylcarbonate Benzoyl Peroxide.

[5] = series with and without TiO2
[6] = in COS SILKFLO ® 366 (POLYDECENE, Non-polar)
[7] = in ISOSTEARYL ISOSTEARATE (Average polarity)
[8] = in PARLEAM ® (HYDROGENATED POLYISOBUTENE, Non-polar)
[9] = in PRIMOL ™ 352 (MINERAL OIL, Non-polar)
[10] = in SILICON FLUID 20CST (POLYDIMETHYLSILOXANE, Average polarity)
[11] = in ST-CYCLOMETHICONE 5 NF (Average polarity)

O=C(OOC(=O)c1ccccc1)c1ccccc1 [BPO, benzoyl peroxide]
maximum solubility, TA reconstituted liquid sebum (22 H) [1]: 1.4%
maximum solubility, TA reconstituted liquid sebum (extemporaneous) [1]: 1.1%
maximum solubility, TA non-volatile (22 H) [1]: 0.35%
maximum solubility, Liquid sebum reconstituted at 32° C. (22 H) [1]: 1.8%

CC(C)OC(=O)Oc1ccccc1C(=O)OOC(=O)c1ccccc1 [CD08467]
maximum solubility, TA reconstituted liquid sebum (22 H) [1]: 1.6%
maximum solubility, TA reconstituted liquid sebum (extemporaneous) [1]: 0.25%
maximum solubility, TA non-volatile (22 H) [1]: 0.25%
maximum solubility, Liquid sebum reconstituted at 32° C. (22 H) [1]: 1.6%
% Max. Solution [2, 6]: 0.1498%
% max sol. visual [2, 6]: 0.18%
% Max. Solution [2, 7]: 0.8679%
% max sol. visual [2, 7]: 1.39%
% Max. Solution [2, 8]: 0.1862%
% max sol. visual [2, 8]: 0.50%
% Max. Solution [2, 9]: 0.1867%
% max sol. visual [2, 9]: 0.41%
% Max. Solution [2, 10]: 0.0735%
% max sol. visual [2, 10]: 0.18%
% Max. Solution ([2]; in SQUALANE PE (Non-polar)): 0.1781%
% max sol. visual ([2]; in SQUALANE PE (Non-polar)): 0.18%
% Max. Solution [2, 11]: 0.1253%
% max sol. visual [2, 11]: 0.33%
% Max. Solution ([2]; in WATER (Polar)): Not measurable
% Max. Solution ([2]; meadowfoam seed oil): 1.2925%
% max sol. visual ([2]; meadowfoam seed oil): 1.96%

O=C(O)CO [GLYCOLIC ACID]
Notes (reason of incompatibility) [3]: Fall in value 1 m
compatibility of keratolytic agents [3]: compatible

NCCCC[C@H](N)C(=O)O [L-LYSINE]
Notes (reason of incompatibility) [3]: Strong coloration

CC(O)C(=O)O (centres unmarked) [LACTIC ACID]
compatibility of keratolytic agents [3]: compatible

O=C(O)CC(O)C(=O)O (centres unmarked) [MALIC ACID]
compatibility of keratolytic agents [3]: compatible

O=P(O)(O)O[C@H]1[C@H](OP(=O)(O)O)[C@@H](OP(=O)(O)O)[C@H](OP(=O)(O)O)[C@@H](OP(=O)(O)O)[C@H]1OP(=O)(O)O [PHYTIC ACID]
compatibility of keratolytic agents [3]: compatible

O=C(O)c1ccccc1O [SALICYLIC ACID]
Notes (reason of incompatibility) [3]: Fall in value 1 m

CC(C)CCCC(C)CCCC(C)CCCCC(C)CCCC(C)CCCC(C)C (centres unmarked) [SQUALANE PE]
compatibility of Isopropylcarbonate Benzoyl Peroxide with oils ([4]; Table 8): compatible

C[Si]1(C)O[Si](C)(C)O[Si](C)(C)O[Si](C)(C)O[Si](C)(C)O1 [ST-CYCLOMETHICONE 5 NF, CYCLOMETHICONE 5]
Notes ([4]; Table 8, comparison with equivalent 2.5% benzoyl peroxide formulation): Intense orange coloration

O=C([O-])CN(CCN(CC(=O)[O-])CC(=O)O)CC(=O)O.[Na+].[Na+] [disodium EDTA, disodium ethylenediaminetetraacetic acid (EDTA)]
effect of component on stability of the formulation [5]: counter the chemically instability
